Assays:
ADAR1 = ADAR1 nanoluc-GFP reporter assay in primary high-risk MF CD34+ cells in stromal co-culture; type: cell-based, human; details: primary high-risk MF HPCs, 72 hr; p<0.05 compared to DMSO
Description: (FIG. 27F) Luminescence-based quantification of ADAR1-dependent nanoluciferase signals in CD34^+ cells from primary, high-risk MF samples (*=untreated patient) after in vitro transduction with the ADAR1 nanoluc-GFP reporter and treatment with vehicle control (DMSO) or Rebecsinib (72 hr). Relative luciferase signals were normalized to cell viability for each condition. Data are represented as mean±SEM. p<0.05 compared to DMSO controls by pairwise t-test.
For nanoluciferase RNA editing activity assays, CD34^+ selected cells from primary high-risk MF samples were lentivirally transduced with ADAR1 nanoluc-GFP reporter for 48 hr, followed by treatment with DMSO or Rebecsinib in stromal co-culture for 72 hr. Luminescence reporter activity was measured in 10,000 cells by NANO-GLO LUCIFERASE ASSAY™ and values were normalized to cell viability. Cell viability was measured in 10,000 cells by CellTiter-Glo Luciferase Assay (Promega). A pilot in vivo reporter assay was also performed using TF-1a cells that were stably transduced with the ADAR1 nanoluc-GFP reporter. […] Cells were transplanted into neonatal Rag2^−/−γc^−/− mice (70,000 cells per mouse), and animals were imaged 4 weeks after transplant on the IVIS 200, as previously described.^7,9 Human cell engraftment was also confirmed in the peripheral blood in the same week as imaging.

[1] = tested on: splicing reporter in KG-1a AML cells; assay: Lentiviral dual fluorescence (RFP/GFP) splicing reporter in KG-1a cells; type: cell-based, human; details: 24 hr
Description: (FIG. 29A) Quantification of cell viability (left panel) and splicing modulation (RFP/GFP ratios, right panel) by flow cytometry analyses of the human AML cell line (KG-1a) stably transduced with a lentiviral dual-fluorescence splicing reporter vector and treated with increasing concentrations of Rebecsinib.
For generation of stably transduced splicing reporter cell lines, a previously described splicing reporter construct^31 was cloned into a lentiviral vector backbone.^52 KG-1a cells were transduced with the dual-fluorescent lentiviral splicing reporter vector, treated with various concentrations of Rebecsinib (3-fold serial dilutions from 3 μM to 4 nM) for 24 hr, washed followed by DAPI staining, and analyzed by flow cytometry for cell viability and RFP/GFP fluorescence intensity. Results were from duplicate wells of each condition. Viability of cells treated with DMSO (0.5% final concentration) was set as 100%. Nonlinear regression curve fit analysis was carried out using Prism software (GraphPad) to determine ECso values for viability and mean fluorescence intensity (MFI) of RFP and GFP.

[2] = Rat single-dose toxicokinetic study; type: in vivo, Sprague Dawley rats; details: IV bolus; for Tmax / half-life: plasma
Description: Pre-IND PD and toxicokinetic (TK) studies (FIG. 4D) were enabled by scalable Rebecsinib synthesis^34 and development of an optimized formulation for in vivo biodistribution (5% w/v EtOH, 5% w/v Kolliphor HS15 in 0.9% Sodium Chloride). In PK studies, Rebecsinib was detectable in rat, rabbit, and non-human primate (NHP) plasma following IV bolus administration. In rat TK studies, Rebecsinib was quantifiable up to 1-hour post-dose at 1 mg/kg and up to 4 hours post-dose at 3, 5, and 8 mg/kg (FIG. 4E). […] Rebecsinib T1/2 values were 0.342, 0.447, 0.313, and 0.530 hours at 1, 3, 5, and 8 mg/kg, respectively. […] Following 3, 10, and 20 mg/kg boluses, Rebecsinib was quantifiable in plasma 1 hour post-dose and could be detected up to 8 hours post-dosing with 40 mg/kg (FIG. 4F). […] Following 3, 10, 15, and 20 mg/kg of Rebecsinib, quantifiable plasma concentrations of Rebecsinib were observed through 8 hrs post-dose (FIG. 4G).
(FIG. 29D) Schematic diagram outlining multispecies toxicokinetic (TK) and pharmacodynamic studies in mammalian species treated in vivo with a single dose of Rebecsinib. Toxicokinetic analyses were performed in rats (n=6 per sex, per group), rabbits (n=2 per sex, per group), and non-human primates (NHPs, n=1 per sex, per group) and pharmacodynamic splice isoform quantification studies were performed in peripheral blood mononuclear cells (PBMCs) from NHP.
(FIG. 29E, FIG. 29F) For toxicokinetic analyses, rats (FIG. 29E) and rabbits (FIG. 29F) were given a single injection of Rebecsinib at 1-40 mg/kg, or vehicle control, and blood samples were drawn at regular intervals to determine plasma concentrations of the compound over 8 hr after treatment.
Single-dose TK studies were performed in Sprague Dawley rats (Charles River Labs, South San Francisco, CA), New Zealand white rabbits (BASi/Inotiv, West Lafayette, IN), and cynomolgus monkeys (BASi/Inotiv). Rat and rabbit studies included toxicology analyses, quantification of plasma levels of Rebecsinib, and necropsies to evaluate organ integrity after treatment. For NHP studies, health and ophthalmological evaluations were performed before and after dosing with Rebecsinib, and blood samples were collected for quantification of plasma levels of Rebecsinib and biomarker studies in PBMCs from treated and control animals. All monkeys were returned to the animal colony after the end of the observation period. Toxicokinetic values including mean plasma concentrations and t1/2 values were calculated according to CRO-approved protocols (Charles River and BASi).

[3] = tested on: ADAR1p150 splice isoform; leukemia stem cells; details: cited from earlier work

With `CC[C@H](OC)[C@@H](C)[C@H]1O[C@@H]1[C@@H](O)[C@H](C)/C=C/C=C(\C)[C@H]1OC(=O)C[C@H](O)CC[C@@](C)(O)[C@@H](OC(C)=O)/C=C/[C@@H]1C` [Rebecsinib] the “ADAR1 RNA editing activity (nanoluciferase signal)” value (ADAR1) was “significantly reduced ADAR1 RNA editing activity”, the “RFP to GFP reporter expression” value [1] was “increased RFP to GFP reporter expression in a dose-dependent manner” and the “last time quantifiable in plasma” value ([2]; 1 mg/kg) was “up to 1 hour”. The “last time quantifiable in plasma” value ([2]; 3 mg/kg) was “up to 4 hours”, the “last time quantifiable in plasma” value ([2]; 5 mg/kg) was “up to 4 hours” and the “last time quantifiable in plasma” value ([2]; 8 mg/kg) was “up to 4 hours”. For the same compound, the Tmax ([2]; 1 mg/kg) was no more than 4.98 min, the half-life ([2]; 1 mg/kg) was 20.5 min and the Tmax ([2]; 3 mg/kg) was no more than 10 min. The half-life ([2]; 3 mg/kg) was 26.8 min, the Tmax ([2]; 5 mg/kg) was no more than 4.98 min and the half-life ([2]; 5 mg/kg) was 18.8 min. For the same compound, the Tmax ([2]; 8 mg/kg) was no more than 10 min, the half-life ([2]; 8 mg/kg) was 31.8 min and the “activation of the interferon-inducible ADAR1p150 splice isoform” value [3] was “inhibit activation of the interferon-inducible ADAR1p150 splice isoform”. For the same compound, the “malignant splice isoform switching” value [3] was “reverse malignant splice isoform switching” and the “leukemia stem cell (LSC) maintenance” value ([3]; in vitro and in preclinical patient-derived AML mouse models) was “significantly reduce leukemia stem cell (LSC) maintenance”.

Source: patent US20260364072A1, “METHODS FOR PROMOTING EXPANSION OF HUMAN CD34+ CELLS IN VIVO AND FOR PROMOTING NEURAL REGENERATION” (THE REGENTS OF THE UNIVERSITY OF CALIFORNIA, priority 2023, published 2026)
